Laboratory results as given in patent US11040954B1, “CXCR3 receptor agonists” (RECEPTOS LLC, priority 2016, dated 2021).
pEC50: −log10 of the molar value. Read-outs that look alike come from different tables or passages of the source.

Columns and labels:
[1] = Mouse pharmacokinetics after oral gavage, plasma drug concentration by LC-MS/MS (C57BL/6); type: in vivo, C57bl/6 mice; conditions: for Cmax / AUC(0-t): mouse, plasma; for AUC(0-t): read-out: AUC0-24
Method: Compounds were formulated in 5% DMSO/5% Tween20 in H2O, sonicated, vortexed, and put on stir plate overnight at a dose volume of 10 mL/kg. Balb/C (Jackson laboratories) or C57bl/6 (Taconic Biosciences) mice (8-9 weeks old) were acclimated to the colony for 3 days prior to dosing. Water and food were provided ab libitum. Compounds were administered by oral gavage. Groups of six animals received 3 to 4 bleeds per day with one terminal bleed. The time points were 30 min, 1 h, 2 h, 4 h, 6 h, 8 h, 24 h. Plasma was collected via centrifugation and analyzed for drug concentrations.
Preparation of Study Samples and Standards for Analysis by LC-MS/MS
50 μl of plasma was aliquoted into a 96 well deep-well polypropylene plate (2 mL) to which 5 μL of DMSO was added. For standards, 5 μl of test compound in DMSO at […] the standard concentration was added to 50 μl of blank matrix in a 96 well deep-well polypropylene plate. For example, for a 300 nM standard, the 10× DMSO concentration was 3 μM. Study samples that require dilution are diluted with the appropriate blank matrix. For example, for a 10× dilution, 5 μL of study sample is added to 45 μl of blank matrix. Protein was precipitated from study samples and standards with the addition of 150 μl of acetonitrile. After a clean plate map was placed firmly over the top of the 96-well plate, a bench top shaker was used for 1 min to ensure complete precipitation of protein. The precipitated protein was pelleted by centrifuging for 3,000 rpm for 10 min at 20° C. and then the clear supernatant was transferred to a clean 96-well plate and spun again under the same conditions in order to pellet any solid material that may have been transferred.
Analysis of Study Samples and Standards with LCMS with MRM Detection
An Agilent 1200 HPLC with binary pump and a Leap CTC with fast wash autosampler were used to introduce samples to the mass spectrometer.
The column used was a Phenomenex Luna C8 30×2 mm 5 μm with a security guard. Mass detection was performed by an Applied Biosystems 4000 Qtrap in MRM mode and ionization was achieved by positive electrospray with a source temperature of 500° C. The ion transitions, […] potential and collision energies were dependent on the specific analyte.
Prepared samples were usually analyzed in reverse chronological order with bracketing standard curves. Typically at least 6 standards were used for quantification with a percent accuracy of +/−15% for all standards except at the LLOQ where a percent accuracy of +/−20% was allowed. The concentration time profile was fit using a one compartment model for the applicable mode of dosing using Phoenix WinNonLin 6.4.

[2] = molecular target: T1, CXCR3 (Homo sapiens, UniProt P49682); assay: CXCR3 cAMP agonist assay (cAMP Hunter CHOK1 CXCR3 Gi cell line, forskolin-stimulated, HitHunter cAMP detection); type: cell-based; conditions: cAMP Hunter CHOK1 CXCR3 Gi cells, 20 μM forskolin, 30 minutes; read-out: Activity (CXCR3 cAMP agonist assay compound EC50)
T1 construct: host or cells: CHO-K1 (cAMP Hunter CHOK1 CXCR3 Gi cell line)
T1 sequence (P49682 1-368): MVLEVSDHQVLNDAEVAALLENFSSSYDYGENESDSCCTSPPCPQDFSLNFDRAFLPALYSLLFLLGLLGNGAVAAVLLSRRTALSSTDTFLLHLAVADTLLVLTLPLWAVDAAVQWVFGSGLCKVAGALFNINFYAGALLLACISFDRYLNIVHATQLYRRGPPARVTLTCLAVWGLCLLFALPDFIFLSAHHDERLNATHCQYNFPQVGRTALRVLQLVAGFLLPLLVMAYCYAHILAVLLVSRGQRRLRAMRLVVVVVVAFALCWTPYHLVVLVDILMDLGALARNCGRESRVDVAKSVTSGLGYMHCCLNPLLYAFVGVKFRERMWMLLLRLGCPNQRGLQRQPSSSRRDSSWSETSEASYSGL
Procedure, shortened: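 Agonist activity was measured as suppression of forskolin (20 μM)-induced cAMP, read by luminescent enzyme-fragment complementation with a cAMP standard curve and CXCL11 defining full efficacy. Assay used 50,000 CXCR3 Gi CHOK1 cells/well in pH 7.4 HEPES-buffered HBSS with 0.1% BSA, compound 0-10 μM over 12 points, 30 min incubation.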

| SMILES | Cmax ([1]; C57BL/6, 10 mg/kg, male mice) [nM] | AUC(0-t) ([1]; C57BL/6, 10 mg/kg, male mice) [µM·h] | pEC50 [2] | apparent oral clearance (CL/F) ([1]; C57BL/6, 10 mg/kg, male mice) [mL/min/kg] | apparent oral clearance (CL/F) ([1]; C57BL/6, 60 mg/kg, male mice) [mL/min/kg] | Cmax ([1]; C57BL/6, 60 mg/kg, male mice) [nM] | AUC(0-t) ([1]; C57BL/6, 60 mg/kg, male mice) [µM·h] | apparent oral clearance (CL/F) ([1]; C57BL/6, 60 mg/kg, female mice) [mL/min/kg] | Cmax ([1]; C57BL/6, 60 mg/kg, female mice) [nM] | AUC(0-t) ([1]; C57BL/6, 60 mg/kg, female mice) [µM·h] | AUC0-24 ([1]; C57BL/6, 60 mg/kg, female mice) |
| --- | --- | --- | --- | --- | --- | --- | --- | --- | --- | --- | --- |
| Cc1cc(NC(=O)[C@H](CCCCN)NC(=O)[C@@H]2Cc3ccccc3CN2C(=O)CCC(=O)c2ccccc2)ccc1Cl [Compound 1-14] | 6 | 0.011 | > 7.30 |  |  |  |  |  |  |  |  |
| Cc1c(NC(=O)[C@H](CCN)NC(=O)[C@@H]2Cc3ccccc3CN2C(=O)CCC(=O)c2ccccc2)ccc(Cl)c1Cl [Compound 2-15] | 970 | 7.5 | > 7.30 | 37 |  |  |  |  |  |  |  |
| COc1cc(Cl)c(Cl)cc1NC(=O)[C@H](CCN)NC(=O)[C@@H]1Cc2ccccc2CN1C(=O)CCC(=O)c1ccccc1 [Compound 2-23] |  |  | > 7.30 |  | 88 | 3900 | 19 |  |  |  |  |
| NCC[C@H](NC(=O)[C@@H]1Cc2ccccc2CN1C(=O)CCC(=O)c1ccccc1)C(=O)Nc1ccc2c(c1)CCC2 [Compound 2-47] |  |  | > 7.30 |  |  |  |  | 66 | 7600 | 27.5 |  |
| Cc1cccc(NC(=O)[C@H](CCN)NC(=O)[C@@H]2Cc3ccccc3CN2C(=O)CCC(=O)c2ccccc2)c1C [Compound 2-49] |  |  | > 7.30 |  |  |  |  | 131 | 7100 | 14.1 |  |
| CCc1cc(NC(=O)[C@H](CCN)NC(=O)[C@@H]2Cc3ccccc3CN2C(=O)CCC(=O)c2ccccc2)ccc1Cl [Compound 2-55] |  |  | > 7.30 |  |  |  |  | 176 | 3000 | 9.9 |  |
| N#Cc1cc2c(cc1NC(=O)[C@H](CCN)NC(=O)[C@@H]1Cc3ccccc3CN1C(=O)CCC(=O)c1ccccc1)CCC2 [Compound 2-57] |  |  | > 7.30 |  |  |  |  | 393 | 1500 | 4.4 |  |
| Cc1cc(NC(=O)C2(NC(=O)[C@@H]3Cc4ccccc4CN3C(=O)CCC(=O)c3ccccc3)CCNCC2)ccc1Cl [Compound 4-12] | 3300 | 9 | 6.60 to 7.30 | 32 |  |  |  |  |  |  |  |
| O=C(CCC(=O)N1Cc2ccccc2C[C@H]1C(=O)NC1(C(=O)Nc2ccc(Cl)c(Cl)c2F)CCNCC1)c1ccccc1 [Compound 4-14] |  |  | > 7.30 |  |  |  |  | 16 | 5200 | 99 |  |
| Cc1cc(NC(=O)C2(NC(=O)[C@@H]3Cc4ccccc4CN3C(=O)CCC(=O)c3ccccc3)CCN(C)CC2)ccc1Cl [Compound 6-4] | 810 | 8.3 | 6.60 to 7.30 | 33 |  |  |  |  |  |  |  |
| Cc1cc(NC(=O)[C@@H](NC(=O)[C@@H]2Cc3ccccc3CN2C(=O)CCC(=O)c2ccccc2)C2CCN(C(C)C)CC2)ccc1Cl [Compound 8-2] | 710 | 2.3 | > 7.30 | 112 |  |  |  |  |  |  |  |
| NCC[C@H](NC(=O)[C@@H]1Cc2ccccc2CN1C(=O)CCC(=O)N1CCCC2(CCC2)C1)C(=O)Nc1ccc2c(c1)CCC2 [Compound 10-8] |  |  | > 7.30 |  |  |  |  | 431 | 1500 | 3.9 |  |
| Cc1cc(NC(=O)[C@H](CCN)NC(=O)[C@@H]2Cc3ccccc3CN2C(=O)CCC(=O)N2CCCC(C)(C)C2)cc(C)c1Cl [Compound 10-9] |  |  | > 7.30 |  |  |  |  | 132 | 4300 | 12.4 |  |
| Cc1cc(NC(=O)[C@H](CCN)NC(=O)[C@@H]2Cc3ccccc3CN2C(=O)CCC(=O)N2CCCC(C)(C)C2)ccc1Cl [Compound 12-88] |  |  | > 7.30 |  |  |  |  | 280 | 3100 | 6 |  |
| Cc1cc(NC(=O)[C@H](CCN)NC(=O)[C@@H]2Cc3ccccc3CN2C(=O)CCC(=O)N2CCN(C)C[C@H]2C)ccc1Cl [Compound 12-100] |  |  | > 7.30 |  |  |  |  |  | 370 |  | BQL |
| Cc1cc(NC(=O)[C@H](CCN)NC(=O)[C@@H]2Cc3ccccc3CN2C(=O)CCC(=O)N(C)CC(C)(C)C)ccc1Cl [Compound 12-114] |  |  | > 7.30 |  |  |  |  | 823 | 600 | 2.1 |  |
| CN1CCN(C(=O)CCC(=O)N2Cc3ccccc3C[C@H]2C(=O)NC2(C(=O)Nc3ccc(Cl)c(Cl)c3F)CCNCC2)CC1 [Compound 12-138] |  |  | > 7.30 |  |  |  |  | 851 | 500 | 1.8 |  |
| NCC[C@H](NC(=O)[C@@H]1Cc2ccccc2CN1C(=O)CCC(=O)N1CCCC12CCC2)C(=O)Nc1ccc(Cl)c(Cl)c1F [Compound 12-152] |  |  | > 7.30 |  |  |  |  | 190 | 2800 | 8.3 |  |
| Cc1ccc(C(F)(F)F)c(NC(=O)[C@H](CCN)NC(=O)[C@@H]2Cc3ccccc3CN2C(=O)CCC(=O)c2ccccc2)c1 [Compound 14-17] |  |  | > 7.30 |  |  |  |  | 22 | 22000 | 78 |  |
| Cc1cc(NC(=O)[C@H](CCN)NC(=O)[C@@H]2Cc3ccccc3CN2C(=O)CCC(=O)c2ccccc2)c(C#N)cc1Cl [Compound 14-18] |  |  | > 7.30 |  |  |  |  | 222 | 3200 | 7.7 |  |
| Cc1cc(NC(=O)[C@H](CCN)NC(=O)[C@@H]2Cc3ccccc3CN2C(=O)CCC(=O)c2ccccc2)c(OC(F)(F)F)cc1C [Compound 14-28] |  |  | > 7.30 |  |  |  |  | 47 | 5200 | 33.8 |  |
| CC1(C)CCN(C(=O)CCC(=O)N2Cc3ccccc3C[C@H]2C(=O)N[C@@H](CCN)C(=O)Nc2ccc(Cl)c(Cl)c2F)C1 [Compound 15-2] |  |  | > 7.30 |  |  |  |  | 347 | 1800 | 4.6 |  |
| CC1(C)CCCCN1C(=O)CCC(=O)N1Cc2ccccc2C[C@H]1C(=O)N[C@@H](CCN)C(=O)Nc1ccc(Cl)c(Cl)c1F [Compound 15-3] |  |  | > 7.30 |  |  |  |  | 666 | 600 | 2.4 |  |
| CC1(C)CCCN(C(=O)CCC(=O)N2Cc3ccccc3C[C@H]2C(=O)N[C@@H](CCN)C(=O)Nc2ccc(Cl)c(Cl)c2F)C1 [Compound 15-6] |  |  | > 7.30 |  |  |  |  | 90 | 5700 | 17.6 |  |
| Cc1c(Cl)ccc(NC(=O)[C@H](CCN)NC(=O)[C@@H]2Cc3ccccc3CN2C(=O)CCC(=O)N2CCCC23CCC3)c1Cl [Compound 15-48] |  |  | > 7.30 |  |  |  |  | 98 | 6700 | 16.3 |  |
| CC1(C)CCCCN1C(=O)CCC(=O)N1Cc2cc(F)ccc2C[C@H]1C(=O)N[C@@H](CCN)C(=O)Nc1ccc(Cl)c(Cl)c1F [Compound 15-62] |  |  | > 7.30 |  |  |  |  | 1100 | 600 | 1.4 |  |
